The target of this assay is human factor Xa (Homo sapiens, UniProt P00742). The assay is described as follows: Factor Xa assay (chromogenic, substrate S-2765).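 Note: purified enzyme preincubated with inhibitor for 10 min before substrate addition, final reaction volume 100 µl.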 Type of assay: biochemical.
Where [1] appears, read: inhibition constant for factor Xa, purified enzyme 0.5 nM, substrate S-2765 140 μM, 25° C., pH 7.8, Ki=IC50/{1+(substrate concentration/Km)}, read-out: Ki(FXa).

pKi: −log10 of the molar value. Where two headings read alike, the source gives them in different places.

Broadly, the pKi is the Ki on a negative log10 scale, so that one unit is a factor of ten.

Sequence of human factor Xa (P00742 235-488 limits assumed): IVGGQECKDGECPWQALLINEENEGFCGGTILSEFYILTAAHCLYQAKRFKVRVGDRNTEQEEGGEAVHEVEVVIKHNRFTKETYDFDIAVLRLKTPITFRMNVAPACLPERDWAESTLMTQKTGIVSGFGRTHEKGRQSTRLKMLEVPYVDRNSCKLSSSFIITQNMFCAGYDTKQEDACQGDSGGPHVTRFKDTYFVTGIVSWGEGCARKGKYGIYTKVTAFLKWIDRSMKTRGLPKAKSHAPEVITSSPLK
Sequence of human factor Xa (P00742 41-179 partner limits assumed): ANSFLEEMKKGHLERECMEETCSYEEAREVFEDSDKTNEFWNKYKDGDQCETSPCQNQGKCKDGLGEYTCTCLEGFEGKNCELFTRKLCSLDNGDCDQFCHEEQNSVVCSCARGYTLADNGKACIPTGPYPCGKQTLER

Consider `COc1cccc(Cn2c(C(=O)NC3CCN(C(C)C)CC3)cc3cc([N+](=O)[O-])ccc32)c1` [Example 71, 1-(3-Methoxy-benzyl)-5-nitro-1H-indole-2-carboxylic acid (1-isopropyl-piperidin-4-yl)-amide], for which the pKi (read-out: Ki(FXa)) is 6.56.
The same measure, in the same setting: the figure for `COc1cccc(Cn2c(C(=O)NC3CCN(C(C)C)CC3)cc3cc(OC)ccc32)c1` [Example 72, 5-Methoxy-1-(3-methoxy-benzyl)-1H-indole-2-carboxylic acid (1-isopropyl-piperidin-4-yl)-amide] is 6.78.
`CC(C)N1CCC(NC(=O)c2cc3ccccc3n2Cc2cc3ccc(Cl)cc3s2)CC1` [Example 119, 1-(6-Chloro-benzo[b]thiophen-2-ylmethyl)-1H-indole-2-carboxylic acid (1-isopropyl-piperidin-4-yl)-amide]: under setting [1], the pKi is 7.40.
Take `CC(C)N1CCC(NC(=O)c2cc3ccccc3n2Cc2nnc(-c3ccc(Cl)s3)s2)CC1` [Example 120, 1-[5-(5-Chloro-thiophen-2-yl)-[1,3,4]thiadiazol-2-ylmethyl]-1H-indole-2-carboxylic acid (1-isopropyl-piperidin-4-yl)-amide]: under setting [1], the pKi is 8.40.
Same read-out and setting: the figure for `CC(C)N1CCC(NC(=O)c2cc3ccccc3n2Cc2cc(-c3ccc(Cl)s3)no2)CC1` [Example 121, 1-[3-(5-Chloro-thiophen-2-yl)-isoxazol-5-ylmethyl]-1H-indole-2-carboxylic acid (1-isopropyl-piperidin-4-yl)-amide] is 8.52; for `CC(C)N1CCC(NC(=O)c2c(Cl)c3ccccc3n2Cc2cc(-c3ccc(Cl)s3)on2)CC1` [Example 122, 3-Chloro-1-[5-(5-chloro-thiophen-2-yl)-isoxazol-3-ylmethyl]-1H-indole-2-carboxylic acid (1-isopropyl-piperidin-4-yl)-amide] it is 8.70.
As to `CC(C)N1CCC(NC(=O)c2c(Br)c3ccccc3n2Cc2cc(-c3ccc(Cl)s3)on2)CC1` [Example 123, 3-Bromo-1-[5-(5-chloro-thiophen-2-yl)-isoxazol-3-ylmethyl]-1H-indole-2-carboxylic acid (1-isopropyl-piperidin-4-yl)-amide], the pKi under setting [1] is 8.70.
Turning to `CC(C)N1CCC(NC(=O)c2cc3ccccc3n2Cc2ccc(OC(F)(F)F)cc2)CC1` [Example 146, 1-(4-Trifluoromethoxy-benzyl)-1H-indole-2-carboxylic acid (1-isopropyl-piperidin-4-yl)-amide], the pKi (read-out: Ki(FXa)) is 6.36.
On the same count and under the same terms, the figure for `CC(C)N1CCC(NC(=O)c2cc3ccccc3n2Cc2ccccc2Cl)CC1` [Example 148, 1-(2-Chloro-benzyl)-1H-indole-2-carboxylic acid (1-isopropyl-piperidin-4-yl)-amide] is 5.71; for `CC(C)N1CCC(NC(=O)c2cc3ccccc3n2Cc2cc(Cl)cc(Cl)c2)CC1` [Example 157, 1-(3,5-Dichloro-benzyl)-1H-indole-2-carboxylic acid (1-isopropyl-piperidin-4-yl)-amide] it is 6.16.
As for `CC(C)N1CCC(NC(=O)c2c(F)c3ccccc3n2Cc2cc(-c3ccc(Cl)s3)on2)CC1` [Example 159, 3-Fluoro-1-[5-(5-chloro-thiophen-2-yl)-isoxazol-3-ylmethyl]-1H-indole-2-carboxylic acid (1-isopropyl-piperidin-4-yl)-amide], the pKi under setting [1] was 8.70.
Regarding `CC(C)N1CCC(NC(=O)c2c(C#N)c3ccccc3n2Cc2cc(-c3ccc(Cl)s3)on2)CC1` [Example 160, 1-[5-(5-Chloro-thiophen-2-yl)-isoxazol-3-ylmethyl]-3-cyano-1H-indole-2-carboxylic acid (1-isopropyl-piperidin-4-yl)-amide], the pKi was 10.00.
The same measure, in the same setting: under `Cc1cccc2c(C#N)c(C(=O)NC3CCN(C(C)C)CC3)n(Cc3cc(-c4ccc(Cl)s4)on3)c12` [Example 161, 1-[5-(5-Chloro-thiophen-2-yl)-isoxazol-3-ylmethyl]-3-cyano-7-methyl-1H-indole-2-carboxylic acid (1-isopropyl-piperidin-4-yl)-amide] stands 10.00.
Take `CC(C)N1CCC(NC(=O)c2cc3ccccc3n2Cc2cnc(-c3ccc(Cl)s3)s2)CC1` [Example 162]: the pKi under setting [1] was 7.24.
The same measure, in the same setting: under `CC(C)N1CCC(NC(=O)c2cc3ccccc3n2Cc2cccc(Cl)c2)CC1` [Example 163, 1-(3-Chloro-benzyl)-1H-indole-2-carboxylic acid (1-isopropyl-piperidin-4-yl)-amide] stands 6.18.
`CC(C)N1CCC(NC(=O)c2cc3ccccc3n2Cc2cccc(C(N)=O)c2)CC1` [Example 165, 1-(3-Carbamoyl-benzyl)-1H-indole-2-carboxylic acid (1-isopropyl-piperidin-4-yl)-amide]: the pKi (read-out: Ki(FXa)) is 6.12.
As to `CC(C)N1CCC(NC(=O)c2cc3ccccc3n2CCc2ccc(Cl)cc2)CC1` [Example 169, 1-[2-(4-Chloro-phenyl)-ethyl]-1H-indole-2-carboxylic acid (1-isopropyl-piperidin-4-yl)-amide], under setting [1], the pKi was 7.14.
Same read-out and setting: under `CC(C)N1CCC(NC(=O)c2cc3ccccc3n2CCc2ccc(Cl)cc2Cl)CC1` [Example 170, 1-[2-(2,4-Dichloro-phenyl)-ethyl]-1H-indole-2-carboxylic acid (1-isopropyl-piperidin-4-yl)-amide] stands 6.33.
For the compound `COc1cccc2c1cc(C(=O)NC1CCN(C(C)C)CC1)n2CCc1ccc(Cl)cc1` [Example 172, 1-[2-(4-Chloro-phenyl)-ethyl]-4-methoxy-1H-indole-2-carboxylic acid (1-isopropyl-piperidin-4-yl)-amide], where the note is “read-out: Ki(FXa)”, the pKi was 7.39.
Still for that read-out and setting: under `CC(C)N1CCC(NC(=O)c2cc3c(Br)cccc3n2Cc2cc(-c3ccc(Cl)s3)on2)CC1` [Example 173, 4-Bromo-1-[5-(5-chloro-thiophen-2-yl)-isoxazol-3-ylmethyl]-1H-indole-2-carboxylic acid (1-isopropyl-piperidin-4-yl)-amide] stands 7.82.
On to `Cc1cccc2c1cc(C(=O)NC1CCN(C(C)C)CC1)n2Cc1cc(-c2ccc(Cl)s2)on1` [Example 174, 1-[5-(5-Chloro-thiophen-2-yl)-isoxazol-3-ylmethyl]-4-methyl-1H-indole-2-carboxylic acid (1-isopropyl-piperidin-4-yl)-amide], for which the pKi under setting [1] was 8.52.
`CC(C)N1CCC(NC(=O)c2cc3cc(C#N)ccc3n2Cc2cc(-c3ccc(Cl)s3)on2)CC1` [Example 176, 1-[5-(5-Chloro-thiophen-2-yl)-isoxazol-3-ylmethyl]-5-cyano-1H-indole-2-carboxylic acid (1-isopropyl-piperidin-4-yl)-amide]: under setting [1], the pKi was 8.70.
With `CC(C)N1CCC(NC(=O)c2cc3c(C(F)(F)F)cccc3n2Cc2cc(-c3ccc(Cl)s3)on2)CC1` [Example 177, 1-[5-(5-Chloro-thiophen-2-yl)-isoxazol-3-ylmethyl]-4-trifluoromethyl-1H-indole-2-carboxylic acid (1-isopropyl-piperidin-4-yl)-amide], under “read-out: Ki(FXa)”, the pKi is 7.82.
For the compound `Cc1ccc(C)c2c1cc(C(=O)NC1CCN(C(C)C)CC1)n2Cc1cc(-c2ccc(Cl)s2)on1` [Example 178, 1-[5-(5-Chloro-thiophen-2-yl)-isoxazol-3-ylmethyl]-4,7-dimethyl-1H-indole-2-carboxylic acid (1-isopropyl-piperidin-4-yl)-amide], the pKi is 8.89.
On to `COc1ccc(OC)c2c1cc(C(=O)NC1CCN(C(C)C)CC1)n2Cc1cc(-c2ccc(Cl)s2)on1` [Example 179, 1-[5-(5-Chloro-thiophen-2-yl)-isoxazol-3-ylmethyl]-4,7-dimethoxy-1H-indole-2-carboxylic acid (1-isopropyl-piperidin-4-yl)-amide], for which the negative-log Ki (pKi) (read-out: Ki(FXa)) is 8.26.
Same read-out and setting: under `CC(C)N1CCC(NC(=O)c2cc3c(Cl)ccc(Cl)c3n2Cc2cc(-c3ccc(Cl)s3)on2)CC1` [Example 180, 4,7-Dichloro-1-[5-(5-chloro-thiophen-2-yl)-isoxazol-3-ylmethyl]-1H-indole-2-carboxylic acid (1-isopropyl-piperidin-4-yl)-amide] stands 7.62.
The same measure, in the same setting: under `CC(C)N1CCC(NC(=O)c2cc3cc(Cl)cc(Cl)c3n2Cc2cc(-c3ccc(Cl)s3)on2)CC1` [Example 181, 5,7-Dichloro-1-[5-(5-chloro-thiophen-2-yl)-isoxazol-3-ylmethyl]-1H-indole-2-carboxylic acid (1-isopropyl-piperidin-4-yl)-amide] stands 7.85.
For the compound `CC(C)N1CCC(NC(=O)c2cc3c(Cl)cccc3n2Cc2cc(-c3ccc(Cl)s3)on2)CC1` [Example 182, 4-Chloro-1-[5-(5-chloro-thiophen-2-yl)-isoxazol-3-ylmethyl]-1H-indole-2-carboxylic acid (1-isopropyl-piperidin-4-yl)-amide], the pKi was 8.30.
For the compound `CN1CCN(NC(=O)c2cc3ccccc3n2Cc2cc(-c3ccc(Cl)s3)on2)CC1` [Example 183, 1-[5-(5-Chloro-thiophen-2-yl)-isoxazol-3-ylmethyl]-1H-indole-2-carboxylic acid (4-methyl-piperazin-1-yl)-amide], the pKi (read-out: Ki(FXa)) is 7.12.
Same read-out and setting: the figure for `CCOC(=O)CN(C(=O)c1cc2cccc(C)c2n1Cc1cc(-c2ccc(Cl)s2)on1)C1CCN(C(C)C)CC1` [Example 184, [{1-[5-(5-Chloro-thiophen-2-yl)-isoxazol-3-ylmethyl]-7-methyl-1H-Indole-2-carbonyl}-(1-isopropyl-piperidin-4-yl)-amino]-acetic acid ethyl ester] is 7.89.
In the case of `Cc1cccc2cc(C(=O)N(CC(=O)O)C3CCN(C(C)C)CC3)n(Cc3cc(-c4ccc(Cl)s4)on3)c12` [Example 185, [{1-[5-(5-Chloro-thiophen-2-yl)-isoxazol-3-ylmethyl]-7-methyl-1H-indole-2-carbonyl}-(1-isopropyl-piperidin-4-yl)-amino]-acetic acid], the pKi (read-out: Ki(FXa)) is 8.30.
With `CCC(CC)N1CCC(NC(=O)c2cc3ccccc3n2Cc2cc(-c3ccc(Cl)s3)on2)CC1` [Example 186, 1-[5-(5-Chloro-thiophen-2-yl)-isoxazol-3-ylmethyl]-1H-indole-2-carboxylic acid [1-(1-ethyl-propyl)-piperidin-4-yl]-amide], under setting [1], the pKi is 6.66.

(Values after patent publication US20090069565A1, “NEW INDOLE DERIVATIVES AS FACTOR XA INHIBITORS” (priority 2001, published 2009).)
